Source: ChEMBL document CHEMBL2146395, “[¹⁸F]FE@SNAP-A new PET tracer for the melanin concentrating hormone receptor 1 (MCHR1): microfluidic and vessel-based approaches” (Bioorg Med Chem, 2012)
Active and inactive are the calls of the source. The calls are words filed in the database; no cut-off is given here.

Key:
[1] = molecular target: T1, Melanin-concentrating hormone receptor 1 (Homo sapiens, UniProt Q99705); assay: Binding affinity to human MCHR1 expressed in CHO cell membranes; conditions: tested as the 18F-labelled form
T1 sequence (Q99705 whole entry): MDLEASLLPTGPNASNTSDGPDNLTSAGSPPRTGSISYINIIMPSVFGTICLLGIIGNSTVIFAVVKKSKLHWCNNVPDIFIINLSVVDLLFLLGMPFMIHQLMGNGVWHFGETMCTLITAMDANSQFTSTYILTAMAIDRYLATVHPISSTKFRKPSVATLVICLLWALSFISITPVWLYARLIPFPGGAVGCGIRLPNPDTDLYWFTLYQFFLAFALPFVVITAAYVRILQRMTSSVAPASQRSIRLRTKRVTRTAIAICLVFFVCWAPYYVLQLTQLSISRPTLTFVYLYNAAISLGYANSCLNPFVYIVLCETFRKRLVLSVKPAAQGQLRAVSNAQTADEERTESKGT

[2] = Drug degradation in human plasma up to 120 mins; assay type: ADME, cell-free; conditions: read-out: Drug degradation
carboxyl esterase = assay: Drug degradation after 6 hrs in presence of carboxyl esterase; assay type: physicochemical; conditions: read-out: Drug degradation
[3] = molecular target: T1, Melanin-concentrating hormone receptor 1; assay: Binding affinity to human MCHR1 expressed in COS7 cells; assay type: cell-based, COS-7

With `COCC1=C(C(=O)OCCF)C(c2ccc(F)c(F)c2)N(C(=O)NCCCN2CCC(c3cccc(NC(C)=O)c3)CC2)C(=O)N1` (centres undefined) the Activity [1] was “Active”.

In the case of `COCC1=C(C(=O)OCC[18F])C(c2ccc(F)c(F)c2)N(C(=O)NCCCN2CCC(c3cccc(NC(C)=O)c3)CC2)C(=O)N1` (centres undefined), the metabolised at 2 h [2] is reported as < 5% and the metabolised at 6 h (carboxyl esterase) is reported as 20%.

Work on `COCC1=C(C(=O)OC)[C@H](c2ccc(F)c(F)c2)N(C(=O)NCCCN2CCC(c3cccc(NC(C)=O)c3)CC2)C(=O)N1` yielded a Kd [3] of 0.18 nM.
